Broadly, the IC50 is the concentration that gives 50% inhibition.

Among the data in US12435087B2, “Modulators of DCN-1 and methods of use thereof” (Cellarity, Inc., priority 2023, dated 2025) are IC50 values, retold here.

Where two headings read alike, the source gives them in different places. A value given as a limit tells only on which side of the number the result lay.

This test has as its target DCN1 (DCUND1) protein PONY domain (Homo sapiens (Human), UniProt Q96GG9). Description: TR-FRET assay (binding to DCN-1, displacement of FAM-labeled probe).
Source text: (§1) The TR-FRET assay was designed following the Scott et al. protocol (Scott et al., Nat Chem Biol. 2017 August; 13(8): 850-857. doi:10.1038/nchembio.2386). The recombinant form of the DCN1 (DCUND1) protein PONY domain was produced using an E. coli expression system at Viva Biotech (China). The DCN1 protein was biotinylated (EZ sulfo-NHS-LC-biotin; Thermofisher) for labeling with streptavidin terbium (Tb) cryptate in the reaction. The probe was changed to a non-covalent DCN1 inhibitor labeled with carboxyfluorescein (FAM; Zhou et al., Nat Commun. 2017; 8: 1150. doi: 10.1038/s41467-017-01243-7). Buffer conditions were modified to enhance protein stability by exchanging Tween20 for TritonX and increasing NaCl to 200 mM. The compounds were screened against 5 nM DCN1 and 20 nM FAM-probe or 0.31 nM DCN1 and 900 nM total probe (100 nM FAM-labeled plus 800 nM unlabeled). The TR-FRET ratio between Tb-DCN1 and the FAM-labeled probe was measured in a 384-well opti-plate (Perkin Elmer) using a plate reader (BMG) at 1, 5, and 24 hrs after treatment with compound (final DMSO concentration of 0.1%). The ratio was normalized to the high (DCN1 and FAM-probe) and low (DCN1 and no probe) controls for a readout of % activity (=100*(x−low)/(high−low).
A TR-FRET assay was performed to evaluate the ability of the compounds to bind the DCN-1 protein.
as §1, with “850-857. Doi: 10.1038/nchembio.2386).” for “850-857. doi:10.1038/nchembio.2386).”, “the DCNI” for “the DCN1”, “1150. Doi:” for “1150. doi:”, “0.1%).” for “0.1%). The ratio was normalized to the high (DCN1 and FAM-probe) and low (DCN1 and no probe) controls for a readout of % activity (=100*(x−low)/(high−low).”

The mark [1] stands for this setting: 24 hr after treatment with compound, read-out: TR FRET IC50 24 hr.
[2] abbreviates: read-out: TR FRET IC50 1 hr, 1 hr after treatment with compound.
Where [3] appears, read: TR FRET IC50 1 hr (nM), 1 hr after treatment with compound.

Chain of DCN1 (DCUND1) protein PONY domain (Q96GG9 60-248): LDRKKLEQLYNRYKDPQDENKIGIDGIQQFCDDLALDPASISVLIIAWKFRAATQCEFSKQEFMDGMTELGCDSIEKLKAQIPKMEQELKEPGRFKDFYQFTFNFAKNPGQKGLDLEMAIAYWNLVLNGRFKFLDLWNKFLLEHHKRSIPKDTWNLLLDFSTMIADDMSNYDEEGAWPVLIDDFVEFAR

Take `C=C(CN1CCC12COC2)C(=O)NCc1cccc([C@@H]2c3cnn(-c4ccccc4)c3N(CC)C(=O)[C@H]2NC(=O)c2nccc(C(F)(F)F)n2)c1` [Compound I-246]: the IC50 by setting is: under setting [1], at most 200 nM; under setting [2], at most 200 nM.

With `CCN1C(=O)[C@H](NC(=O)c2cccc(C(F)(F)F)c2)[C@@H](c2cccc(N(C)C(=O)C3=CCC3)c2)c2cnn(-c3ccccc3)c21` [Compound I-91], the IC50 lay within 1000 to 3000 nM under setting [1] and 1000 to 3000 nM under setting [3].

For `CCN1C(=O)[C@H](NC(=O)c2cccc(C(F)(F)F)c2)[C@@H](c2cccc(NC(=O)C3CCC3)c2)c2c(C)nn(-c3ccccc3)c21` (racemic) [Compound I-123], the IC50 lay within 1000 to 3000 nM under setting [1] and 1000 to 3000 nM under setting [3].

For `CCN1C(=O)[C@@H](NC(=O)c2nccc(C(F)(F)F)n2)[C@H](c2ccccc2/C=C\C#N)c2cnn(-c3ccccc3)c21` (racemic) [Compound I-260, rac-N-((4R,5S)-4-(2-((Z)-2-cyanovinyl)phenyl)-7-ethyl-6-oxo-1-phenyl-4,5,6,7-tetrahydro-1H-pyrazolo[3,4-b]pyridin-5-yl)-4-(trifluoromethyl)pyrimidine-2-carboxamide], the IC50 was in the range of 1000 to 3000 nM under setting [1] and 1000 to 3000 nM under setting [3].

Consider `CCN1C(=O)[C@@H](NC(=O)c2cccc(C(F)(F)F)c2)[C@H](c2ccc(F)c(NC(=O)/C=C/CN(C)C)c2)c2cnn(-c3ccccc3)c21` [Compound I-32], for which the IC50 under setting [1] was at most 200 nM and the IC50 under setting [3] is 1000 to 3000 nM.

On to `CCN1C(=O)[C@@H](NC(=O)c2nccc(C(F)(F)F)n2)[C@H](c2cccc(C(=O)N3CC(F)(F)C[C@H]3C#N)c2)c2cnn(-c3ccccc3)c21` (mixture of isomers) [Compound I-379, N-(rac-(4R,5S)-4-(3-((S)-2-cyano-4,4-difluoropyrrolidine-1-carbonyl)phenyl)-7-ethyl-6-oxo-1-phenyl-4,5,6,7-tetrahydro-1H-pyrazolo[3,4-b]pyridin-5-yl)-4-(trifluoromethyl)pyrimidine-2-carboxamide], for which the IC50 lay in the range of 1000 to 3000 nM under setting [1] and 1000 to 3000 nM under setting [3].

For `CCN1C(=O)[C@@H](NC(=O)c2cccc(C(F)(F)F)c2)[C@@H](c2cccc(NC(=O)C3=CCN(C)C3)c2)c2c(C)nn(-c3ccccc3)c21` (racemic) [Compound I-148], the IC50 reads like this: under setting [1], 200 to 1000 nM; under setting [3], 1000 to 3000 nM.

Take `C/C=C(/C)S(=O)(=O)Nc1cccc([C@H]2c3c(C)nn(-c4ccccc4)c3N(CC)C(=O)[C@@H]2NC(=O)c2cccc(C(F)(F)F)c2)c1` (racemic) [Compound I-127]: the IC50 under setting [1] fell in the range of 1000 to 3000 nM and the IC50 under setting [3] was 1000 to 3000 nM.

For `CCN1C(=O)[C@@H](NC(=O)c2nccc(C(F)(F)F)n2)[C@H](c2cccc(C(=O)N3CCC[C@H]3C#N)c2)c2cnn(-c3ccccc3)c21` [Compound I-249], the IC50 under setting [1] was 1000 to 3000 nM and the IC50 under setting [3] is 1000 to 3000 nM.

As to `C=C(CN1CC(F)(F)C1)C(=O)NCc1cccc([C@H]2c3cnn(-c4ccccc4)c3N(CC)C(=O)[C@@H]2NC(=O)c2cccc(C(F)(F)F)c2)c1` [Compound I-96], the IC50 under setting [1] lay in the range of 1000 to 3000 nM and the IC50 under setting [3] fell in the range of 1000 to 3000 nM.

Consider `C=C(CN1CCOCC1)C(=O)NCc1cccc([C@@H]2c3cnn(-c4ccccc4)c3N(CC)C(=O)[C@H]2NC(=O)c2ccnn2C)c1` [Compound I-266], for which the IC50 was 1000 to 3000 nM under setting [1] and 1000 to 3000 nM under setting [3].

For the molecule `CCN1C(=O)[C@H](NC(=O)c2cccc(C(F)(F)F)c2)[C@@H](c2cccc(NC(=O)C#CCN3CCOCC3)c2)c2c(C)nn(-c3ccccc3)c21` (racemic) [Compound I-139, rac-N-((4R,5S)-7-ethyl-3-methyl-4-(3-(4-morpholinobut-2-ynamido)phenyl)-6-oxo-1-phenyl-4,5,6,7-tetrahydro-1H-pyrazolo[3,4-b]pyridin-5-yl)-3-(trifluoromethyl)benzamide], the IC50 is, setting by setting: under setting [1], 200 to 1000 nM; under setting [3], 1000 to 3000 nM.

For `C/C=C(\CN(C)C1COC1)C(=O)Nc1cccc([C@@H]2c3cnn(-c4ccccc4)c3N(CC)C(=O)[C@H]2NC(=O)c2nccc(C(F)(F)F)n2)c1` [Compound I-384], the IC50 is, setting by setting: under setting [1], at most 200 nM; under setting [3], 200 to 1000 nM.

For `CCN1C(=O)[C@@H](NC(=O)c2nccc(C(F)(F)F)n2)[C@H](c2cccc(NC(=O)C3=CCN(C)C3)n2)c2cnn(-c3ccccc3)c21` (racemic) [Compound I-376, rac-N-((4R,5S)-7-ethyl-4-(6-(1-methyl-2,5-dihydro-1H-pyrrole-3-carboxamido)pyridin-2-yl)-6-oxo-1-phenyl-4,5,6,7-tetrahydro-1H-pyrazolo[3,4-b]pyridin-5-yl)-4-(trifluoromethyl)pyrimidine-2-carboxamide], the IC50 by setting is: under setting [1], at most 200 nM; under setting [3], 200 to 1000 nM.

Consider `C=C(CN1CCC1)C(=O)NCc1cccc([C@@H]2c3cnn(-c4ccccc4)c3N(CC)C(=O)[C@H]2NC(=O)c2nccc(C(F)(F)F)n2)c1` [Compound I-162], for which the IC50 under setting [1] was at most 200 nM and the IC50 under setting [2] was at most 200 nM.

Consider `C/C=C(\CN(C)C1COC1)C(=O)NCc1cccc([C@@H]2c3cnn(-c4ccccc4)c3N(CC)C(=O)[C@H]2NC(=O)c2ccn(C(F)(F)F)n2)c1` [Compound I-248], for which the IC50 by setting is: under setting [1], at most 200 nM; under setting [3], 200 to 1000 nM.

As for `CCN1C(=O)[C@@H](NC(=O)c2cccc(C(F)(F)F)c2)[C@H](c2cccc(CNC(=O)C3=C(C(=O)OC)CCC3)c2)c2cnn(-c3ccccc3)c21` [Compound I-108], the IC50 lay in the range of 1000 to 3000 nM under setting [1] and 1000 to 3000 nM under setting [3].

Regarding `C=C(COC)C(=O)Nc1cccc([C@H]2c3c(C)nn(-c4ccccc4)c3N(CC)C(=O)[C@@H]2NC(=O)c2cccc(C(F)(F)F)c2)c1` [Compound I-158], the IC50 by setting is: under setting [1], at most 200 nM; under setting [3], 1000 to 3000 nM.

On to `C/C=C(\CN1CCN(C2COC2)CC1)C(=O)NCc1cccc([C@@H]2c3cnn(-c4ccccc4)c3N(CC)C(=O)[C@H]2NC(=O)c2ccn(C3CC3)n2)c1` [Compound I-288], for which the IC50 by setting is: under setting [1], at most 200 nM; under setting [3], 200 to 1000 nM.

Turning to `CCN1C(=O)[C@H](NC(=O)c2cccc(C(F)(F)F)c2)[C@@H](c2ccccc2N(C)C#N)c2cnn(-c3ccccc3)c21` (racemic) [Compound I-90, ˜{N}—[˜{rac}-(4˜{S},5˜{R})-4-[2-[cyano(methyl)amino]phenyl]-7-ethyl-6-oxo-1-phenyl-4,5-dihydropyrazolo[3,4-b]pyridin-5-yl]-3-(trifluoromethyl)benzamide], the IC50 under setting [1] was in the range of 1000 to 3000 nM and the IC50 under setting [3] is 1000 to 3000 nM.

With `C=C(CN1CC2CCC(C1)O2)C(=O)NCc1cccc([C@@H]2c3cnn(-c4ccccc4)c3N(CC)C(=O)[C@H]2NC(=O)c2nccc(C(F)(F)F)n2)c1` [Compound I-292], the IC50 by setting is: under setting [1], at most 200 nM; under setting [2], at most 200 nM.

Turning to `C=C(CN1CC2CCC(C1)O2)C(=O)NCc1cccc([C@@H]2c3cnn(-c4ccccc4)c3N(CC)C(=O)[C@H]2NC(=O)c2ccn(C(F)(F)F)n2)c1` [Compound I-347], the IC50 reads like this: under setting [1], at most 200 nM; under setting [2], at most 200 nM.

With `CCN1C(=O)[C@@H](NC(=O)c2nccc(C(F)(F)F)n2)[C@H](c2cccc(C(=O)N(C)CC#N)c2)c2cnn(-c3ccccc3)c21` (racemic) [Compound I-370], the IC50 lay in the range of 1000 to 3000 nM under setting [1] and 1000 to 3000 nM under setting [3].

Take `CCN1C(=O)[C@@H](NC(=O)c2cccc(C(F)(F)F)c2)[C@H](c2cccc(CNC(=O)C(F)Cl)c2)c2cnn(-c3ccccc3)c21` (mixture of isomers) [Compound I-100]: the IC50 by setting is: under setting [1], 1000 to 3000 nM; under setting [3], 1000 to 3000 nM.
